Series [1] has as its target T1, GRP78ATPase (ATPase domain of human GRP78, residues 26–407) (Homo sapiens, UniProt P11021).
T1 construct: GRP78ATPase (residues 26–407) was amplified from the full-length human GRP78; hexahistidine tag (pET28-MHL vector) (N); made in house; host or cells: E. coli BL-21(DE3)
Description: Surface plasmon resonance (SPR) binding of nucleotides to immobilized GRP78ATPase. Conditions: for binding to GRP78ATPase upon removal of Mg++ (in words): 5 mM EDTA; for Kd: 25 °C, mean ± SD, n = 3. On the procedure:
Successful transformants were grown in Luria Bertani broth (Sigma) for 16 hrs at 37°C, and then transferred to Terrific Broth (Sigma). Growth at 37°C continued until the OD600 reached ~3.0, whereupon the temperature was lowered to 18°C and protein expression was induced by the addition of 0.1 mM isopropyl β-D-thiogalactopyranoside. Sixteen hours post-induction, cells were collected by centrifugation and resuspended in binding buffer (30 mM Tris-HCl pH 7.5, 200 mM NaCl, 1 mM β-ME) supplemented with 0.1% octylphenoxypolyethoxyethanol, 1 mM benzamidine, and 1 mM phenylmethanesulfonyl fluoride. Cells were lysed by French press, and the lysates were clarified by centrifugation. The supernatant was loaded on to a nickel-nitrilotriacetic acid column pre-equilibrated with binding buffer. Following a wash step with binding buffer containing 30 mM imidazole, the bound protein was eluted using a linear gradient from 30 to 500 mM imidazole. The eluate was then loaded on to a 26/60 Superdex 200 size exclusion column (GE Healthcare) pre-equilibrated with 30 mM Tris-HCl pH 7.5, 200 mM NaCl and 1 mM β-ME. Target protein-containing fractions were pooled and concentrated to 30 mg/ml using 10-kDa centrifugal filter units (Amicon), and then frozen in aliquots at -80°C until further use
SPR measurements were performed on Biacore T200 instrument (GE Healthcare) at 25 °C. Purified GRP78ATPase was immobilized on a CM5 sensorchip using NHS/EDC coupling following the manufacturer protocol to a level of ~7000 RUs, a reference surfaces without immobilized GRP78ATPase served as a control for nonspecific binding and refractive index changes. […] Buffer alone injections were used as blanks. […] The running buffer was 10 mM HEPES, pH 7.4, 150 mM NaCl, 0.005% P20 and 2 mM MgCl2. Biacore equilibrium responses recorded at the end of the association step were used to determine the dissociation constant (Kd). Nonspecific signal binding was removed by subtracting a reference channel without GRP78ATPase. Binding responses at the different concentrations were globally fitted to a saturation-binding model in Prism 6 (GraphPad Software Inc., California).
The effect of Mg^++ on binding affinities was explored by repeating the same SPR protocol with two additional running buffers. The first running buffer contained no addition of Mg^++ to determine the effect of Mg^++ co-purified with GRP78ATPase (10 mM HEPES, pH 7.4, 150 mM NaCl and 0.005% P20), and the second running buffer contained 5 mM EDTA to chelate any Mg^++ present in the system (10 mM HEPES, pH 7.4, 150 mM NaCl, 0.005% P20 and 5 mM EDTA).
Background: SPR reads the build-up and loss of mass on a sensor chip optically.

In series [2] the test system is human ecto-nucleotidases (NTPDase1, 2, 3, 8 and NPP1 and 3). The note with it: cited from earlier work.
Where [3] appears, read: SPR running buffer untreated (no addition of either MgCl2 or EDTA).
Where [4] appears, read: SPR running buffer with 5 mM EDTA (Mg++ removed).
Setting [5] is: SPR running buffer with 2 mM MgCl2.

Each structure is given as a SMILES string.

T1 sequence (P11021 26-407): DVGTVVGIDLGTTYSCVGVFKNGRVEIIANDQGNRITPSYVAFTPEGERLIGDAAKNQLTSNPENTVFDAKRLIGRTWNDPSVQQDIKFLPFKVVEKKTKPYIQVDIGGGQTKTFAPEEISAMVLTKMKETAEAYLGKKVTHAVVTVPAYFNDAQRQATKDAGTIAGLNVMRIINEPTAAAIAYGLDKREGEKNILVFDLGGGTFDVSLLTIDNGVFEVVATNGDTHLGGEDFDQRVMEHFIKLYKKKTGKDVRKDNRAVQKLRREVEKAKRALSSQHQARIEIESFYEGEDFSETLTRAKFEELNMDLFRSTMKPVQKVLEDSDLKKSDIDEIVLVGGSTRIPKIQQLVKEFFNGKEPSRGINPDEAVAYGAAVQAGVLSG

Usually Kd stands for a measure of binding affinity in units of concentration. Low readings indicate higher affinity, high ones lower affinity. With `Nc1ncnc2c1ncn2[C@H]1C[C@H](O)[C@@H](COP(=O)(O)OP(=O)(O)OP(=O)(O)O)O1` [2'-deoxyATP], in series [1], the “binding to GRP78ATPase upon removal of Mg++ (in words)” value is “nearly abolished the binding”. Moreover, the Kd is 750 µM in series [1] (setting [3]) and greater than 1000 µM in series [1] (setting [4]).

Consider `Nc1ncnc2c1ccn2C1OC(COP(=O)(O)OP(=O)(O)OP(=O)(O)O)C(O)C1O` (stereo not drawn) [7-deazaATP], for which the Kd worked out at 0.15 µM in series [1] (setting [3]), 0.03 µM in series [1] (setting [5]) and 0.9 µM in series [1] (setting [4]).

As to `Nc1ncnc2c1ncn2C1OC(COP(=O)(O)OP(=O)(O)C(Br)(Br)P(=O)(O)O)C(O)C1O` (stereo not drawn) [AMPPCBrP], the “hydrolysis by most human ecto-nucleotidases” value in series [2] is “cannot hydrolyze”.

As for `Nc1ncnc2c1ncn2[C@@H]1O[C@H](COP(=O)(O)OP(=O)(O)CP(=O)(O)O)[C@@H](O)[C@H]1O` [AMPPCP], the “binding to GRP78ATPase upon removal of Mg++ (in words)” value in series [1] is listed as “almost abolished binding”. The Kd is 52 µM in series [1] (setting [3]), 59 µM in series [1] (setting [5]) and greater than 1000 µM in series [1] (setting [4]). In series [1] (purified GRP78ATPase, SPR), the “affinity relative to ATP (in words)” value is “two-orders of magnitude lower”.

For `Nc1ncnc2c1ncn2[C@@H]1O[C@H](COP(=O)(O)OP(=O)(O)OP(=O)(O)O)[C@@H](O)[C@H]1O` [ATP], the results for the Kd in series [1] (setting [3]), in series [1] (setting [5]) and in series [1] (setting [4]) were 0.78 µM, 0.45 µM and 9.8 µM, respectively.
